Assay results reported in patent US6737383B1, “Herbicidal oxadiazolidines” (priority 1999, dated 2004).

Columns and labels:
blackgrass = test: Test B pre/postemergence blackgrass; assay type: in vivo, Alopecurus myosuroides; details: Rate 62 g/ha, Postemergence; scale of 0 to 10 where 0 is no effect and 10 is complete control
How it was run: (§1)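 Test chemicals in a non-phytotoxic solvent mixture with surfactant were sprayed preemergence onto planted seeds and postemergence onto plants 2 to 18 cm tall (1- to 4-leaf stage). After twelve to sixteen days in a greenhouse, injury was visually rated against untreated controls from 0 (no effect) to 10 (complete control).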

surinam grass = test: Test B pre/postemergence surinam grass; assay type: in vivo, Brachiaria decumbens; details: for B. signalgrass plant response rating: scale of 0 to 10 where 0 is no effect and 10 is complete control
How it was run: as §1

bamyardgrass = test: Test B flood test barnyardgrass; assay type: in vivo, Echinochloa crus-galli
Protocol: (§2) At the same time, these crop and weed species were also treated with postemergence applications of test chemicals formulated in the same manner. Plants ranged in height from 2 to 18 cm (1- to 4-leaf stage) for postemergence treatments. Plant species in the flood test consisted of rice (Oryza sativa), smallflower flatsedge (Cyperus difformis), duck salad (Heteranthera limosa) and bamyardgrass (Echinochloa crus-galli) grown to the 2-leaf stage for testing. Treated plants and controls were maintained in a greenhouse for twelve to sixteen days, after which all species were compared to controls and visually evaluated. Plant response ratings, summarized in Table B, are based on a scale of 0 to 10 where 0 is no effect and 10 is complete control. A dash (−) response means no test result.

duck salad = test: Test B flood test duck salad; assay type: in vivo, Heteranthera limosa
Protocol: as §2

rape = test: Test B pre/postemergence rape; assay type: in vivo, Brassica napus; details: for Rape plant response rating: scale of 0 to 10 where 0 is no effect and 10 is complete control
How it was run: as §1

corn = test: Test B pre/postemergence corn; assay type: in vivo, Zea mays; details: for Corn plant response rating: scale of 0 to 10 where 0 is no effect and 10 is complete control
How it was run: as §1

morningglory = test: Test B pre/postemergence morningglory; assay type: in vivo, Ipomoea hederacea; details: for Morningglory plant response rating: scale of 0 to 10 where 0 is no effect and 10 is complete control
How it was run: as §1

smallflower flatsedge = test: Test B flood test smallflower flatsedge; assay type: in vivo, Cyperus difformis
Protocol: as §2

sugar beet = test: Test B pre/postemergence sugar beet; assay type: in vivo, Beta vulgaris; details: for Sugarbeets plant response rating: scale of 0 to 10 where 0 is no effect and 10 is complete control
How it was run: as §1

wild oat = test: Test B pre/postemergence wild oat; assay type: in vivo, Avena fatua; details: for Wild oats plant response rating: scale of 0 to 10 where 0 is no effect and 10 is complete control
How it was run: as §1

wheat = test: Test B pre/postemergence wheat; assay type: in vivo, Triticum aestivum; details: for Wheat plant response rating: scale of 0 to 10 where 0 is no effect and 10 is complete control
How it was run: as §1

[1] = Postemergence, Rate 125 g/ha, scale 0 to 10, 0 is no effect, 10 is complete control
[2] = Postemergence, Rate 250 g/ha, scale 0 to 10, 0 is no effect, 10 is complete control
[3] = Preemergence, Rate 62 g/ha, scale 0 to 10 (0 no effect, 10 complete control)
[4] = Rate 62 g/ha, flood test species, Pre-emergence, visual evaluation after twelve to sixteen days
[5] = Rate 125 g/ha, under heading Pre-emergence, flood test species, visual evaluation after twelve to sixteen days
[6] = Rate 250 g/ha, Pre-emergence, flood-test species, scale 0 to 10, 0 is no effect, 10 is complete control
[7] = Rate 500 g/ha, Pre-emergence, flood test species, scale 0 to 10 (0 no effect, 10 complete control)

CCCCCCn1c(=O)on(C(=O)N(c2ccc(F)cc2)C(C)C)c1=O [Compound 389]
1: Morningglory plant response rating (morningglory; Preemergence, Rate 500 g/ha) | Wild oats plant response rating (wild oat; Preemergence, Rate 250 g/ha)
4: B. signalgrass plant response rating (surinam grass; Preemergence, Rate 500 g/ha) | Rape plant response rating (rape; Postemergence, Rate 500 g/ha) | Corn plant response rating (corn; Preemergence, Rate 500 g/ha) | Sugarbeets plant response rating (sugar beet; Preemergence, Rate 500 g/ha) | Wild oats plant response rating (wild oat; Preemergence, Rate 500 g/ha)
3: Ducksalad plant response rating (duck salad; [7])
0: Blackgrass plant response rating (blackgrass) | Plant response rating, B. signalgrass (surinam grass; [1]) | Plant response rating, B. signalgrass (surinam grass; [2]) | B. signalgrass plant response rating (surinam grass; Postemergence, Rate 500 g/ha) | Plant response rating, B. signalgrass (surinam grass; [3]) | B. signalgrass plant response rating (0 to 10 scale, 0 is no effect, 10 is complete control) (surinam grass; Preemergence, Rate 125 g/ha) | B. signalgrass plant response rating (surinam grass; Preemergence, Rate 250 g/ha) | B. signalgrass plant response rating (surinam grass; Rate 62 g/ha, Postemergence) | Plant response rating, Barnyardgrass (0 to 10 scale, 0 is no effect, 10 is complete control) (bamyardgrass; [4]) | Barnyardgrass plant response rating (0 to 10 scale, 0 is no effect, 10 is complete control) (bamyardgrass; [5]) | Barnyardgrass plant response rating (bamyardgrass; [6]) | Barnyardgrass plant response rating (bamyardgrass; [7]) | Plant response rating, Ducksalad (0 to 10 scale, 0 is no effect, 10 is complete control) (duck salad; [4]) | Ducksalad plant response rating (0 to 10 scale, 0 is no effect, 10 is complete control) (duck salad; [5]) | Ducksalad plant response rating (duck salad; [6]) | Plant response rating, Rape (rape; [3]) | Rape plant response rating (0 to 10 scale) (rape; Preemergence, Rate 125 g/ha) | Rape plant response rating (rape; Preemergence, Rate 250 g/ha) | Plant response rating, Corn (corn; [1]) | Plant response rating, Corn (corn; [2]) | Corn plant response rating (corn; Postemergence, Rate 500 g/ha) | Plant response rating, Corn (corn; [3]) | Corn plant response rating (0 to 10 scale) (corn; Preemergence, Rate 125 g/ha) | Corn plant response rating (corn; Preemergence, Rate 250 g/ha) | Corn plant response rating (corn; Rate 62 g/ha, Postemergence) | Plant response rating, Morningglory (morningglory; [3]) | Morningglory plant response rating (0 to 10 scale) (morningglory; Preemergence, Rate 125 g/ha) | Morningglory plant response rating (morningglory; Preemergence, Rate 250 g/ha) | Plant response rating, S. Flatsedge (0 to 10 scale, 0 is no effect, 10 is complete control) (smallflower flatsedge; [4]) | S. Flatsedge plant response rating (0 to 10 scale, 0 is no effect, 10 is complete control) (smallflower flatsedge; [5]) | S. Flatsedge plant response rating (smallflower flatsedge; [6]) | S. Flatsedge plant response rating (smallflower flatsedge; [7]) | Plant response rating, Sugarbeets (sugar beet; [2]) | Sugarbeets plant response rating (sugar beet; Postemergence, Rate 500 g/ha) | Plant response rating, Sugarbeets (sugar beet; [3]) | Sugarbeets plant response rating (0 to 10 scale) (sugar beet; Preemergence, Rate 125 g/ha) | Sugarbeets plant response rating (sugar beet; Preemergence, Rate 250 g/ha) | Sugarbeets plant response rating (sugar beet; Rate 62 g/ha, Postemergence) | Plant response rating, Wild oats (wild oat; [2]) | Wild oats plant response rating (wild oat; Postemergence, Rate 500 g/ha) | Plant response rating, Wild oats (wild oat; [3]) | Wild oats plant response rating (0 to 10 scale) (wild oat; Preemergence, Rate 125 g/ha) | Wild oats plant response rating (wild oat; Rate 62 g/ha, Postemergence) | Plant response rating, Wheat (wheat; [2]) | Wheat plant response rating (wheat; Postemergence, Rate 500 g/ha) | Plant response rating, Wheat (wheat; [3]) | Wheat plant response rating (0 to 10 scale) (wheat; Preemergence, Rate 125 g/ha) | Wheat plant response rating (wheat; Preemergence, Rate 250 g/ha) | Wheat plant response rating (wheat; Preemergence, Rate 500 g/ha) | Wheat plant response rating (wheat; Rate 62 g/ha, Postemergence)
8: Rape plant response rating (rape; Preemergence, Rate 500 g/ha) | Plant response rating, Morningglory (morningglory; [2])
10: Morningglory plant response rating (morningglory; Postemergence, Rate 500 g/ha)
2: Plant response rating, Rape (rape; [2]) | Morningglory plant response rating (morningglory; Rate 62 g/ha, Postemergence)
